2 compounds from US9598414B2, “Substituted benzo[5,6]azepino[3,2,1-hi]pyrido[4,3-b]indoles and substituted benzo[6,7][1,4]oxazepino[2,3,4-hi]pyrido[4,3-b]indoles for treating CNS disorders” (Daya Drug Discoveries, Inc., priority 2013, dated 2017) can be followed below.

As usually defined, the Ki is a measure of affinity in units of concentration, obtained from inhibition or displacement. Read a high Ki as a looser hold on the target.

The target in one assay is T1, Serotonin 5-HT1A (Homo sapiens, UniProt P08908).
T1 sequence (P08908 1-422): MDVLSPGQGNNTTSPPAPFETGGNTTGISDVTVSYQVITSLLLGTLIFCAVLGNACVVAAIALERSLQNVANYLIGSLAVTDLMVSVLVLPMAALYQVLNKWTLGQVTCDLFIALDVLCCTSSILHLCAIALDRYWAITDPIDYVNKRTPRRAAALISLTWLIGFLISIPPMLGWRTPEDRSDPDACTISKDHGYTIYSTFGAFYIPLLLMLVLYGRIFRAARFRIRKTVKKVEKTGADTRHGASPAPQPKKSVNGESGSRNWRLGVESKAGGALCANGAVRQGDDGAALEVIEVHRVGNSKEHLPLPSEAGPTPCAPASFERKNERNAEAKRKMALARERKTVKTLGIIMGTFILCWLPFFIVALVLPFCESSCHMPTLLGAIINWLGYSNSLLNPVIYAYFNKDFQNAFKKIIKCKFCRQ
The assay can be described thus: Receptor binding, 5-HT1A.

The target in another assay is Serotonin 5-HT1B (Homo sapiens, UniProt P28222). The assay can be described thus: Receptor binding, 5-HT1B.
Chain of Serotonin 5-HT1B (P28222 whole entry): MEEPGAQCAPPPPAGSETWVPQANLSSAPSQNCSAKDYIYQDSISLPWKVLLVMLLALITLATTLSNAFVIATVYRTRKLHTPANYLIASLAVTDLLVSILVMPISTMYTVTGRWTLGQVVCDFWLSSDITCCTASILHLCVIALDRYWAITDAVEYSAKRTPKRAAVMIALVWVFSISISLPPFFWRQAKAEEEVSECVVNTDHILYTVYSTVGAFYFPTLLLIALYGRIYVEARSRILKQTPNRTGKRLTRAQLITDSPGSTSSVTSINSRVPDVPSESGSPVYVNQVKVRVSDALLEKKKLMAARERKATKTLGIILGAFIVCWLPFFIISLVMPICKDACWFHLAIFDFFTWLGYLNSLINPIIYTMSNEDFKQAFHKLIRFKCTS
Another assay concerns the target Serotonin 5-HT1D (Homo sapiens, UniProt P28221). Briefly: Receptor binding, 5-HT1D.
Another assay concerns the target Serotonin 5-HT1E (Homo sapiens, UniProt P28566). The assay can be described thus: Receptor binding, 5-HT1E.
The target of another assay is Serotonin 5-HT2A (Homo sapiens, UniProt P28223). The assay can be described thus: Receptor binding, 5-HT2A.
Chain of Serotonin 5-HT2A (P28223 whole entry): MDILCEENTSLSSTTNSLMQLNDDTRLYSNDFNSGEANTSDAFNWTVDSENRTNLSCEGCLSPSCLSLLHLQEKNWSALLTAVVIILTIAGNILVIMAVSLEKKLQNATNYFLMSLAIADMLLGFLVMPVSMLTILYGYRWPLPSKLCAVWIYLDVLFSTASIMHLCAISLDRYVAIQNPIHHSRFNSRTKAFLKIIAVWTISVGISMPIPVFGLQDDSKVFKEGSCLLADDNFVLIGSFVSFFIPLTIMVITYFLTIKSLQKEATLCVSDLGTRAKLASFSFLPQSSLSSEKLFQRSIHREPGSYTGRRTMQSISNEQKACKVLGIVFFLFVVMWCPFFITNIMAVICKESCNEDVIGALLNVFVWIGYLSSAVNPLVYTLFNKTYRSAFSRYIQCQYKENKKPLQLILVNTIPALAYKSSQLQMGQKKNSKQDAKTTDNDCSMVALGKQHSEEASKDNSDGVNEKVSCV
Another assay concerns the target Serotonin 5-HT2B (Homo sapiens, UniProt P41595). Briefly: Receptor binding, 5-HT2B.
The target of the next assay is T2, Serotonin 5-HT2C (Homo sapiens, UniProt P28335).
T2 sequence (P28335 33-458): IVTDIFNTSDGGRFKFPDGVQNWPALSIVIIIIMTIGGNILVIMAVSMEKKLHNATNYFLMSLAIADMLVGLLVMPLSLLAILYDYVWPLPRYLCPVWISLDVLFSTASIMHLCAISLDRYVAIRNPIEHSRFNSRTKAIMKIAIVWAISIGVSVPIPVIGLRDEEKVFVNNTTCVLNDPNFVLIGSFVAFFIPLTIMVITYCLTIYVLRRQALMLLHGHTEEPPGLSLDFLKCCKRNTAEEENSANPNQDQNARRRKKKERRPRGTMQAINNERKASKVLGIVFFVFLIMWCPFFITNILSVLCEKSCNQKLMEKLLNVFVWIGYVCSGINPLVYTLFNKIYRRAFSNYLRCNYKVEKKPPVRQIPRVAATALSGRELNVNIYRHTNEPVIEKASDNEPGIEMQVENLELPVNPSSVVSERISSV
The assay can be described thus: Receptor binding, 5-HT2C. As to conditions: 5-HT2C.

For a further assay, the target named is Serotonin 5-HT5A (Homo sapiens, UniProt P47898). Briefly: Receptor binding, 5-HT5A.
A further assay deals with Serotonin 5-HT6 (Homo sapiens, UniProt P50406). The assay can be described thus: Receptor binding, 5-HT6. To be noted: for Ki: 5-HT6.
Chain of Serotonin 5-HT6 (P50406 whole entry): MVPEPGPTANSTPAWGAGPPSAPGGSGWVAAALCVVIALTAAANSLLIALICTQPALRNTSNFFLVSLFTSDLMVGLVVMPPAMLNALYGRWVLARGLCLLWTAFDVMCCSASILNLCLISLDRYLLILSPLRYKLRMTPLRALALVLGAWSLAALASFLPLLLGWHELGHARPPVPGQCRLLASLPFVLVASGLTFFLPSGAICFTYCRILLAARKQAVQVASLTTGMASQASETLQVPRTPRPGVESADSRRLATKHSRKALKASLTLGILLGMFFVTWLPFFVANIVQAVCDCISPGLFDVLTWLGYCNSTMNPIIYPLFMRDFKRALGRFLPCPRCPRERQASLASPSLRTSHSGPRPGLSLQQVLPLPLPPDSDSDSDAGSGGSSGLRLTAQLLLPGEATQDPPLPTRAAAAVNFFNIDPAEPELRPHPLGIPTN
A further assay deals with Serotonin 5-HT7 (Homo sapiens, UniProt P34969). Briefly: Receptor binding, 5-HT7. As to conditions: for Ki: 5-HT7.
Chain of Serotonin 5-HT7 (P34969 whole entry): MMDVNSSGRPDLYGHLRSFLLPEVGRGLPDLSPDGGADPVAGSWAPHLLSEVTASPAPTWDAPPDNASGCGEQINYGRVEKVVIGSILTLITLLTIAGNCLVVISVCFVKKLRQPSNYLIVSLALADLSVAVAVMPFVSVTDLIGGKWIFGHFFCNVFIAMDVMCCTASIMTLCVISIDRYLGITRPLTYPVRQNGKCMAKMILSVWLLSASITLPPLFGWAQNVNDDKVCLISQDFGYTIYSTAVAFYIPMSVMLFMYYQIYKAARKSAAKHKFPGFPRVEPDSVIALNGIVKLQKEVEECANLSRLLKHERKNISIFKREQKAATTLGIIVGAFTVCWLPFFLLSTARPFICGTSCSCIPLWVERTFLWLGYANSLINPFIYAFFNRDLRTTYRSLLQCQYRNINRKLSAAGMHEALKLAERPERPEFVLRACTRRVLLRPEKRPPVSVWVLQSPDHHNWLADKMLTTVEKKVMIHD
Another assay has as its target Dopamine D2 (Homo sapiens, UniProt P14416). Briefly: Receptor binding, D2.
The target in the next assay is Dopamine D5 (Homo sapiens, UniProt P21918). The assay can be described thus: Receptor binding, D5.
In a further assay the target is α-Adrenergic α1A (Homo sapiens, UniProt P35348). Briefly: Receptor binding, α1A.
In a further assay the target is α-Adrenergic α1B (Homo sapiens, UniProt P35368). Briefly: Receptor binding, α1B.
The target of a further assay is α-Adrenergic α1D (Homo sapiens, UniProt P25100). Briefly: Receptor binding, α1D.
Another assay addresses T3, α-Adrenergic α2A (Homo sapiens, UniProt P08913).
T3 sequence (P08913 1-465): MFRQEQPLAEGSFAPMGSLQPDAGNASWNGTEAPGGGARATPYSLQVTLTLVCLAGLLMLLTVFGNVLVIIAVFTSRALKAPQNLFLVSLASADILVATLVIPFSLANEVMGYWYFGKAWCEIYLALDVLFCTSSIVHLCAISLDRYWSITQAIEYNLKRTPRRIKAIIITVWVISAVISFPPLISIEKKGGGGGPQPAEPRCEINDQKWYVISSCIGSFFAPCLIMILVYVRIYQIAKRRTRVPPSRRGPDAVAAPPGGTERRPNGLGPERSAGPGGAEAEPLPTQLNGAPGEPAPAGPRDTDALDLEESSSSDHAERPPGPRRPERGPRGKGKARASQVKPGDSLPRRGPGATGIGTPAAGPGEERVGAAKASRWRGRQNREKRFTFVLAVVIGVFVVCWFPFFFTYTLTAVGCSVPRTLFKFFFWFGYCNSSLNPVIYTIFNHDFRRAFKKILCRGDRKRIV
The assay can be described thus: Receptor binding, α2A.

The target of the next assay is T4, α-Adrenergic α2B (Homo sapiens, UniProt P18089).
T4 sequence (P18089 1-450): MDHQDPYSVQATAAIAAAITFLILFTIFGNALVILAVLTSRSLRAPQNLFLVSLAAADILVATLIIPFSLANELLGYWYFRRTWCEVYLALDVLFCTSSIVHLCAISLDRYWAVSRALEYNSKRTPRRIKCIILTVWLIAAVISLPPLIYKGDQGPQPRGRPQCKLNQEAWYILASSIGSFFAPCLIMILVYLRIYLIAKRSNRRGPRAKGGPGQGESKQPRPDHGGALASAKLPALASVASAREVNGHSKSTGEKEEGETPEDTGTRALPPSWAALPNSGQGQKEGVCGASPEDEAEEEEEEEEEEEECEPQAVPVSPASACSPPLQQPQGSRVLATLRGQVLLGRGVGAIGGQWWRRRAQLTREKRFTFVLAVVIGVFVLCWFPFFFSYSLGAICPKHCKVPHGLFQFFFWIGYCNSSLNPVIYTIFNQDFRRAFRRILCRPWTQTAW
Briefly: Receptor binding, α2B.

The target in a further assay is T5, α-Adrenergic α2C (Homo sapiens, UniProt P18825).
T5 sequence (P18825 1-462): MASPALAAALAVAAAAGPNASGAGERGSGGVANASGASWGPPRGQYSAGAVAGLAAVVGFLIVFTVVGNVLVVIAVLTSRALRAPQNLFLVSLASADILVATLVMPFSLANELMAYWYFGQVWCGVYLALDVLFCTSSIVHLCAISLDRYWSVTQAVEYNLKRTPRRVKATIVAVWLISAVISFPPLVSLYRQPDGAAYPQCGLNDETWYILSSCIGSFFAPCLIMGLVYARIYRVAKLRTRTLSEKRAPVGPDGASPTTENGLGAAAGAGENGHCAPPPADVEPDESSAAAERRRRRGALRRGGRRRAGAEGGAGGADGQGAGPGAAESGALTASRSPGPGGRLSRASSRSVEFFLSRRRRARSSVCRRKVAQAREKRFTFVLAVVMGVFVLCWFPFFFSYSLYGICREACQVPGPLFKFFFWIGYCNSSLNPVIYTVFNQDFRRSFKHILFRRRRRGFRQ
Briefly: Receptor binding, α2C.

For the next assay, the target named is Histamine H1 (Homo sapiens, UniProt P35367). Briefly: Receptor binding, H1. To be noted: for Ki: H1.
Chain of Histamine H1 (P35367 whole entry): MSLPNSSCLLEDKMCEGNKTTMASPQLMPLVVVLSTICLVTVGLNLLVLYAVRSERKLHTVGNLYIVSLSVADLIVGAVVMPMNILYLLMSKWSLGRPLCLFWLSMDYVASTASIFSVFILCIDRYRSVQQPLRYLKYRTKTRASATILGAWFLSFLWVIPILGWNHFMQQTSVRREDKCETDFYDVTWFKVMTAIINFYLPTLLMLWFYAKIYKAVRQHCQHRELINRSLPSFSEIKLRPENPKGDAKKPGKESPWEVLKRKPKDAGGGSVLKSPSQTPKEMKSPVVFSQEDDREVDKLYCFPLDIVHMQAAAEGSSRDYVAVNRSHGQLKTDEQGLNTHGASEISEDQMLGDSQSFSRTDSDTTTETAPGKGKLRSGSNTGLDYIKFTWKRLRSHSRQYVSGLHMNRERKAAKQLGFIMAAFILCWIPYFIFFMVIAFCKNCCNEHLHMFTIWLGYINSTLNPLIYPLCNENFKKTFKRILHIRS
The target in the next assay is Histamine H2 (Homo sapiens, UniProt P25021). Briefly: Receptor binding, H2.
For the next assay, the target named is Sigma σ2 (Homo sapiens, UniProt Q5BJF2). The assay can be described thus: Receptor binding, σ2. To be noted: σ2.
Chain of Sigma σ2 (Q5BJF2 whole entry): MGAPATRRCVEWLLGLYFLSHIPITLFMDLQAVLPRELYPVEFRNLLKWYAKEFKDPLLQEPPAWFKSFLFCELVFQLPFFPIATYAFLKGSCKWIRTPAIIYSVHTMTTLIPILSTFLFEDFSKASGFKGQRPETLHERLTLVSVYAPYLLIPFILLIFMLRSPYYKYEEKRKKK
A further assay concerns the target Opioid κ (Homo sapiens, UniProt P41145). Briefly: Receptor binding, opioid κ.
The target of the next assay is Muscarinic M1 (Homo sapiens, UniProt P11229). Briefly: Receptor binding, M1.
Another assay concerns the target Muscarinic M3 (Homo sapiens, UniProt P20309). The assay can be described thus: Receptor binding, M3.
The next assay concerns the target Muscarinic M5 (Homo sapiens, UniProt P08912). The assay can be described thus: Receptor binding, M5.
The target in another assay is Serotonin transporter (Homo sapiens, UniProt P31645). Briefly: Receptor binding, serotonin transporter.
Chain of Serotonin transporter (P31645 whole entry): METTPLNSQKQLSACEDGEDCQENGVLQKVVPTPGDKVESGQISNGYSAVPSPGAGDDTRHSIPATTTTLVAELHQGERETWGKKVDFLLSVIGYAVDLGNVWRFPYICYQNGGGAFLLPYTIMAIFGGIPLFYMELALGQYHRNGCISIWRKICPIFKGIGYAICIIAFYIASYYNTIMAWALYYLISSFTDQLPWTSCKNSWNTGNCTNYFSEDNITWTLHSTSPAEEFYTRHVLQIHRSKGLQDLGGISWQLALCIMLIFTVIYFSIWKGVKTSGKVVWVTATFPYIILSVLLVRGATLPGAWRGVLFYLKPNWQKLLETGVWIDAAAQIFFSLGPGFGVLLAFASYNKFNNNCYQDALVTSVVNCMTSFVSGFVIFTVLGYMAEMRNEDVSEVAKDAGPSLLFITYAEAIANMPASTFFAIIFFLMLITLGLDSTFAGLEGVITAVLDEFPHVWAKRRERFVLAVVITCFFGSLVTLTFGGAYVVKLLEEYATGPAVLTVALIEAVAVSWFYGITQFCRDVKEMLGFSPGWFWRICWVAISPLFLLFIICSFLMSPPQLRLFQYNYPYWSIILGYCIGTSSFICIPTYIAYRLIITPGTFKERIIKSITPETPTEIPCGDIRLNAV
For the next assay, the target named is Dopamine D3 (Homo sapiens, UniProt P35462). The assay can be described thus: Receptor binding, D3.
Assay [1] addresses Norepinephrine transporter (Homo sapiens, UniProt P23975). Briefly: Receptor binding, norepinephrine transporter. To be noted: Transporters: Norepinephrine.
In another assay the test system is dopamine receptors. The assay can be described thus: Receptor binding, dopamine receptors. As to conditions: any of the dopamine receptors, summary of Table 1.

Read-outs that look alike come from different tables or passages of the source. Some results are limits rather than exact numbers.

Chain of Serotonin 5-HT2B (P41595 whole entry): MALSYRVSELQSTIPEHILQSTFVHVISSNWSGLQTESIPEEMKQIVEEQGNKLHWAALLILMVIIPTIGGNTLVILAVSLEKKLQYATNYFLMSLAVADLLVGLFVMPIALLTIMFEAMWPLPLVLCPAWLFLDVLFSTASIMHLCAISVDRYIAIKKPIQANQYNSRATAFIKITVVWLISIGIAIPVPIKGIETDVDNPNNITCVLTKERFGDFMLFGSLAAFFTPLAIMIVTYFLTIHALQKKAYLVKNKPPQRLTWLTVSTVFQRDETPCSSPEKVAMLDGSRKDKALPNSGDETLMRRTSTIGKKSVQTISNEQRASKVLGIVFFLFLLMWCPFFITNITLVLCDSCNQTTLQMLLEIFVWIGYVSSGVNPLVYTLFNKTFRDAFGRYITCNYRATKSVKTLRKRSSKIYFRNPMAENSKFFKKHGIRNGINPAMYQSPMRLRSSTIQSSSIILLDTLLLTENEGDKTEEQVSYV
Chain of Serotonin 5-HT1D (P28221 whole entry): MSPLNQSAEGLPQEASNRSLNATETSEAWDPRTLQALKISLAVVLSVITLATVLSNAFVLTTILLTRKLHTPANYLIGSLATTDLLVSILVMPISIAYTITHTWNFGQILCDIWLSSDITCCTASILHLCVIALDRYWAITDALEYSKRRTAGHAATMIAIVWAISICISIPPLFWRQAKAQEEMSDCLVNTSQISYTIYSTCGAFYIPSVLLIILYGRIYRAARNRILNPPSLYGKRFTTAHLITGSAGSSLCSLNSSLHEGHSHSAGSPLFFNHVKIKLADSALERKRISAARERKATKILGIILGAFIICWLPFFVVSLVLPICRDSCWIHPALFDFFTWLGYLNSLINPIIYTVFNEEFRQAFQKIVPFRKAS
Chain of Muscarinic M5 (P08912 whole entry): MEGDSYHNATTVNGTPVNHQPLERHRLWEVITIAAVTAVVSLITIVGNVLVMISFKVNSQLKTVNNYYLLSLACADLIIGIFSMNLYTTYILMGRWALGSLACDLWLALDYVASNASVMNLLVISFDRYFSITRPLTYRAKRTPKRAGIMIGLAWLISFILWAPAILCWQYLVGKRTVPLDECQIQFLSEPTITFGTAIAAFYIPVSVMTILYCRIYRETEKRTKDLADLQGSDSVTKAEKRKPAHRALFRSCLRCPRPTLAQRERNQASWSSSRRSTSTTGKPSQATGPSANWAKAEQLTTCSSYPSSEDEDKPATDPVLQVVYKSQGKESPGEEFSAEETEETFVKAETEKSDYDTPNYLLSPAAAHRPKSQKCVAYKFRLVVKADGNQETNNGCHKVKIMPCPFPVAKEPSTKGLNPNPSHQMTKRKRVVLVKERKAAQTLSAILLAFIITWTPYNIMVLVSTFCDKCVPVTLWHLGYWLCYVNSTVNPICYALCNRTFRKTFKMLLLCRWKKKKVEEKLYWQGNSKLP
Chain of Dopamine D2 (P14416 whole entry): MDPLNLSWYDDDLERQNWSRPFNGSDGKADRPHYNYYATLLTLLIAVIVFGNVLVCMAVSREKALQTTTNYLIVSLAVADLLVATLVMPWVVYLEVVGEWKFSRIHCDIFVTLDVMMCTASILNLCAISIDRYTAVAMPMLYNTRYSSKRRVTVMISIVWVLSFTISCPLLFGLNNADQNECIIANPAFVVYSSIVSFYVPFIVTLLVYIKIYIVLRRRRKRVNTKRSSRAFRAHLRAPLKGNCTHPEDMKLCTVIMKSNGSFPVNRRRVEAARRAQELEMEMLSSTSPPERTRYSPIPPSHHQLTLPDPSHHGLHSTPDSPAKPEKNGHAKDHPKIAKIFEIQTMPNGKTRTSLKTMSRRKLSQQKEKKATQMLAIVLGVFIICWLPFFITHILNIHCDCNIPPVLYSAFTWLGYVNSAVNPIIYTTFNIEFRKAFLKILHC

Take `CN1CCc2c(c3cccc4c3n2-c2ccccc2CC4)C1` [Compound 6a, reference compound]: the inhibition constant Ki on Serotonin 5-HT1A is 0.596 µM; on Serotonin 5-HT1B, 1.36 µM; at Serotonin 5-HT1D, 0.085 µM; on Serotonin 5-HT1E, 4.04 µM; at Serotonin 5-HT2A, 0.024 µM; on Serotonin 5-HT2B it was 0.087 µM. Further, the Ki was found to be 0.01 µM on Serotonin 5-HT2C; 0.75 µM on Serotonin 5-HT5A; 0.155 µM at Serotonin 5-HT6; 0.1 µM at Serotonin 5-HT7; 0.835 µM on Dopamine D2; 0.581 µM on Dopamine D5. Further, the Ki came to 2.37 µM on α-Adrenergic α1A; 3.31 µM on α-Adrenergic α1B; 0.595 µM at α-Adrenergic α1D; 0.228 µM on α-Adrenergic α2A; 0.413 µM at α-Adrenergic α2B; 0.173 µM on α-Adrenergic α2C. In addition, the inhibition constant (Ki) on Histamine H1 was 0.05 µM; on Histamine H2, 0.081 µM; at Sigma σ2 it was 2.23 µM; at Opioid κ, 2.18 µM; on Muscarinic M1, 4.46 µM; on Muscarinic M3, 3.76 µM. Moreover, the Ki on Muscarinic M5 turned out to be 5.17 µM; at Serotonin transporter (Transporters: Serotonin), 2.19 µM.
With `CN1CCc2c(c3cccc4c3n2Cc2ccccc2C4)C1` [Compound 13a], the Ki at Serotonin 5-HT1A came out at 0.375 µM; at Serotonin 5-HT1B, 0.715 µM; at Serotonin 5-HT1D, 0.029 µM; at Serotonin 5-HT2A, 0.736 µM; at Serotonin 5-HT2B it was 0.057 µM; at Serotonin 5-HT6, 0.273 µM. Further, the Ki is 0.212 µM on Serotonin 5-HT7; 1.5 µM at Dopamine D3; 1.8 µM on α-Adrenergic α2A; 2.19 µM on α-Adrenergic α2B; 0.77 µM at α-Adrenergic α2C; 0.048 µM at Histamine H1. Besides, the results for the Ki (on Sigma σ2; in [1]; on Serotonin transporter) were 0.52 µM, above 10 µM and 2.19 µM, respectively. In addition, the “binding, in words” value on Serotonin 5-HT1A (summary of Table 1) is “moderate binding”; at Serotonin 5-HT1D (summary of Table 1) it was “strong binding”; at Serotonin 5-HT2B (summary of Table 1), “strong binding”; at Serotonin 5-HT6 (5-HT6, text summary of Table 1), “moderate binding”; at Serotonin 5-HT7 (5-HT7, text summary of Table 1), “moderate binding”; at Histamine H1 (H1, text summary of Table 1), “strong binding”. The “binding, in words” value in the assay with dopamine receptors is “neither of the two compounds 13a and 13b binds significantly”.
